Data from patent US20260256792A1, “TREATMENT OF CHRONIC SPONTANEOUS URTICARIA BY ADMINISTERING (R)-2-[3-[4-AMINO-3-(2-FLUORO-4-PHENOXY-PHENYL)PYRAZOLO[3,4-D]PYRIMIDIN-1-YL]PIPERIDINE-1-CARBONYL]-4-METHYL-4-[4-(OXETAN-3-YL)PIPERAZIN-1-YL]PENT-2-ENENITRILE” (priority 2023, published 2026).

Tested on: moderate-to-severe chronic spontaneous urticaria (CSU)
Test: Phase 2 CSU study: urticaria activity score over 7 days (UAS7)
Format: in vivo, human
Details: Omalizumab-Naïve
Source text: The study comprises a 12 week, randomized, double-blind, placebo-controlled, multi-center, dose-ranging efficacy and safety phase, followed by a 40 week open label extension (OLE) phase (see FIG. 1). The study consists of three phases and an optional OLE phase. […] Clinically, CSU is characterized by the spontaneous and recurrent appearance of pruritic hives. The proposed primary endpoints were the UAS7 at Week 12 in EU and EU reference countries and the ISS7 in the US. Regardless of where a participant was from, all assessments were the same. The UAS7 score is a composite score containing both the HSS7 and the ISS7. This allowed a global assessment of the two key components of urticaria: hives and itch. […] The UAS is a validated PRO measure. […] The daily UAS scores range from 0 to 6 point/day. […] Patients were to complete the UAS using the e-diary. […] The following secondary endpoints were to be analyzed using the same approach as for the primary endpoint: • Change from baseline in UAS7 at Week 4 • Change from baseline in UAS7 at Week 12 (for US and US reference countries) • Change from baseline in ISS7 at Week 12 (except US and US reference countries) • Change from baseline in HSS7 at Week 12 The following responder secondary endpoints were to be analyzed using the Cochran-Mantel-Haenszel test adjusted by region: • Proportion of participants with UAS7<6 at Week 12 • Proportion of participants with UAS7=0 at Week 12 Participants who received selected prohibited medications and/or rescue medications were to be considered as non-responders for time points after the medication usage. For other participants, all available data including those collected during the off-treatment period were to be used to determine the responder/non-responder status. Missing data were to be considered as non-responders.

[1] = Ethnicity Non-Hispanic, 400 mg TID
[2] = History of angioedema No, 400 mg BID
[3] = History of angioedema No, 400 mg QPM
[4] = History of angioedema No, 400 mg TID
[5] = History of angioedema Yes, 400 mg BID
[6] = History of angioedema Yes, 400 mg QPM
[7] = History of angioedema Yes, 400 mg TID
[8] = Race All the Others, 400 mg BID
[9] = Race All the Others, 400 mg QPM
[10] = Race All the Others, 400 mg TID
[11] = Region Eastern Europe, 400 mg BID
[12] = Region Eastern Europe, 400 mg QPM
[13] = Region Eastern Europe, 400 mg TID
[14] = Region Latin America, 400 mg BID
[15] = Region Latin America, 400 mg QPM

## CC(C)(C=C(C#N)C(=O)N1CCC[C@@H](n2nc(-c3ccc(Oc4ccccc4)cc3F)c3c(N)ncnc32)C1)N1CCN(C2COC2)CC1 [rilzabrutinib, (R)-2-[3-[4-amino-3-(2-fluoro-4-phenoxy-phenyl)pyrazolo[3,4-d]pyrimidin-1-yl]piperidine-1-carbonyl]-4-methyl-4-[4-(oxetan-3-yl)piperazin-1-yl]pent-2-enenitrile]
Ethnicity Non-Hispanic, 400 mg QPM
  Change from Baseline in UAS7 at Week 12: Mean (SD): −10.78 (9.25)
[1]
  Change from Baseline in UAS7 at Week 12: LS Mean (SE): −19.24 (2.48)
  Change from Baseline in UAS7 at Week 12: Mean (SD): −22.02 (10.28)
Gender Female, 400 mg BID
  Change from Baseline in UAS7 at Week 12: Mean (SD): −13.23 (11.66)
Gender Female, 400 mg QPM
  Change from Baseline in UAS7 at Week 12: Mean (SD): −10.93 (9.28)
Gender Female, 400 mg TID
  Change from Baseline in UAS7 at Week 12: Mean (SD): −20.41 (11.94)
Gender Male, 400 mg BID
  Change from Baseline in UAS7 at Week 12: LS Mean (SE): −16.67 (3.54)
  Change from Baseline in UAS7 at Week 12: Mean (SD): −16.87 (13.20)
Gender Male, 400 mg QPM
  Change from Baseline in UAS7 at Week 12: LS Mean (SE): −8.84 (4.15)
  Change from Baseline in UAS7 at Week 12: Mean (SD): −9.58 (10.13)
Gender Male, 400 mg TID
  Change from Baseline in UAS7 at Week 12: Mean (SD): −12.72 (5.65)
[2]
  Change from Baseline in UAS7 at Week 12: LS Mean (SE): −15.01 (2.39)
  Change from Baseline in UAS7 at Week 12: LS Mean Diff vs. placebo (95% CI): −5.13 (−12.18, 1.92)
  Change from Baseline in UAS7 at Week 12: Mean (SD): −17.10 (12.56)
[3]
  Change from Baseline in UAS7 at Week 12: LS Mean (SE): −7.72 (2.58)
  Change from Baseline in UAS7 at Week 12: LS Mean Diff vs. placebo (95% CI): 2.16 (−5.19, 9.52)
  Change from Baseline in UAS7 at Week 12: Mean (SD): −9.12 (7.74)
[4]
  Change from Baseline in UAS7 at Week 12: LS Mean (SE): −17.97 (2.40)
  Change from Baseline in UAS7 at Week 12: LS Mean Diff vs. placebo (95% CI): −8.09 (−15.14, −1.03)
  Change from Baseline in UAS7 at Week 12: Mean (SD): −20.20 (12.00)
[5]
  Change from Baseline in UAS7 at Week 12: LS Mean (SE): −11.58 (3.69)
  Change from Baseline in UAS7 at Week 12: LS Mean Diff vs. placebo (95% CI): −1.91 (−11.17, 7.35)
  Change from Baseline in UAS7 at Week 12: Mean (SD): −8.60 (9.01)
[6]
  Change from Baseline in UAS7 at Week 12: LS Mean (SE): −11.20 (2.97)
  Change from Baseline in UAS7 at Week 12: LS Mean Diff vs. placebo (95% CI): −1.53 (−9.72, 6.65)
  Change from Baseline in UAS7 at Week 12: Mean (SD): −13.08 (11.63)
[7]
  Change from Baseline in UAS7 at Week 12: LS Mean (SE): −15.33 (3.68)
  Change from Baseline in UAS7 at Week 12: LS Mean Diff vs. placebo (95% CI): −5.66 (−14.82, 3.50)
  Change from Baseline in UAS7 at Week 12: Mean (SD): −16.58 (10.23)
[8]
  Change from Baseline in UAS7 at Week 12: LS Mean (SE): −11.33 (3.66)
  Change from Baseline in UAS7 at Week 12: LS Mean Diff vs. placebo (95% CI): −4.82 (−14.87, 5.24)
  Change from Baseline in UAS7 at Week 12: Mean (SD): −11.25 (10.32)
[9]
  Change from Baseline in UAS7 at Week 12: LS Mean (SE): −8.43 (3.32)
  Change from Baseline in UAS7 at Week 12: LS Mean Diff vs. placebo (95% CI): −1.92 (−11.55, 7.72)
  Change from Baseline in UAS7 at Week 12: Mean (SD): −9.59 (9.91)
[10]
  Change from Baseline in UAS7 at Week 12: LS Mean (SE): −14.94 (3.44)
  Change from Baseline in UAS7 at Week 12: LS Mean Diff vs. placebo (95% CI): 8.43 (−18.08, 1.23)
  Change from Baseline in UAS7 at Week 12: Mean (SD): −14.86 (9.62)
Race White, 400 mg BID
  Change from Baseline in UAS7 at Week 12: LS Mean (SE): −15.38 (2.37)
  Change from Baseline in UAS7 at Week 12: LS Mean Diff vs. placebo (95% CI): −4.73 (−11.30, 1.84)
  Change from Baseline in UAS7 at Week 12: Mean (SD): −15.92 (12.79)
Race White, 400 mg QPM
  Change from Baseline in UAS7 at Week 12: LS Mean (SE): −9.37 (2.37)
  Change from Baseline in UAS7 at Week 12: LS Mean Diff vs. placebo (95% CI): 1.28 (−5.33, 7.88)
Race White, 400 mg TID
  Change from Baseline in UAS7 at Week 12: LS Mean (SE): −17.97 (2.44)
  Change from Baseline in UAS7 at Week 12: LS Mean Diff vs. placebo (95% CI): −7.33 (−13.95, −0.70)
  Change from Baseline in UAS7 at Week 12: Mean (SD): −20.70 (11.84)
Region Asia, 400 mg BID
  Change from Baseline in UAS7 at Week 12: LS Mean (SE): −11.32 (3.76)
  Change from Baseline in UAS7 at Week 12: LS Mean Diff vs. placebo (95% CI): −4.86 (−15.18, 5.46)
  Change from Baseline in UAS7 at Week 12: Mean (SD): −11.25 (10.32)
Region Asia, 400 mg QPM
  Change from Baseline in UAS7 at Week 12: LS Mean (SE): −9.00 (3.50)
  Change from Baseline in UAS7 at Week 12: Mean (SD): −9.59 (9.91)
Region Asia, 400 mg TID
  Change from Baseline in UAS7 at Week 12: LS Mean (SE): −14.25 (3.99)
  Change from Baseline in UAS7 at Week 12: LS Mean Diff vs. placebo (95% CI): −7.78 (−18.32, 2.76)
[11]
  Change from Baseline in UAS7 at Week 12: LS Mean (SE): −6.34 (10.64)
  Change from Baseline in UAS7 at Week 12: LS Mean Diff vs. placebo (95% CI): 13.37 (−19.79, 46.54)
  Change from Baseline in UAS7 at Week 12: Mean (SD): −20.14 (18.13)
[12]
  Change from Baseline in UAS7 at Week 12: LS Mean (SE): −5.35 (5.65)
  Change from Baseline in UAS7 at Week 12: LS Mean Diff vs. placebo (95% CI): 14.37 (−6.40, 35.15)
  Change from Baseline in UAS7 at Week 12: Mean (SD): −5.79 (5.45)
[13]
  Change from Baseline in UAS7 at Week 12: LS Mean (SE): −25.97 (6.17)
  Change from Baseline in UAS7 at Week 12: LS Mean Diff vs. placebo (95% CI): −6.26 (−24.55, 12.03)
  Change from Baseline in UAS7 at Week 12: Mean (SD): −21.88 (11.40)
[14]
  Change from Baseline in UAS7 at Week 12: LS Mean (SE): −9.26 (3.71)
  Change from Baseline in UAS7 at Week 12: LS Mean Diff vs. placebo (95% CI): 2.62 (−7.19, 12.43)
  Change from Baseline in UAS7 at Week 12: Mean (SD): −10.23 (11.81)
[15]
  Change from Baseline in UAS7 at Week 12: LS Mean (SE): −10.74 (3.14)
  Change from Baseline in UAS7 at Week 12: LS Mean Diff vs. placebo (95% CI): 1.14 (−7.86, 10.15)
